Measured values taken from the supplement of paper PMC11208160.

experiment: recombinant barcode read abundance after kanamycin selection (control-corrected) (log10(CPM+1)); higher = more efficient recombination; sequences stand for … in AGTGCAGAGAAAATCGGCCAGTTTTCTCTGCCTGCAGTCCGCATGCCGT…AGATTTATGCAGCGGACTGCCTTTCTCCCAAAGTGATAAACCGGACAGTATCATGGACCGGTTTTCCCGGTAATCCGTATTTGCAAGGTTGGTTTCACT; site = the 11-nt target
Outline: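 Each value is log10(CPM+1). It describes recombination efficiency, taken as averaged, control-corrected counts per million of barcodes at recombinant junctions. The pooled E. coli library paired targets with IS621 bridge RNA target-binding loops, was co-electroporated with a donor plasmid, and was plated twice on chloramphenicol/ampicillin LB agar (control) and twice on chloramphenicol/ampicillin/kanamycin containing 0.1 mM IPTG.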
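Further: IS621 recombinase and bridge RNA in Escherichia coli cells.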

| Sequence | recombinant barcode read abundance (log10) |
| --- | --- |
| TGGCAGACTTGGGTTCTAACCTGTTGCCT (site TGGCAGCCTAG) | 0.263 |
| TGTTGAGCTTGGGTTCTAACCTGTTGCCG (site TGTCGAGCTCG) | 0.192 |
| AAGTCTCCTTGGGTTCTAACCTGTTGCAG (site AAGTCTCCTCT) | 0.174 |
| TAGGCTACTTGGGTTCTAACCTGTTGCAT (site TAGGCTACTGT) | 0.132 |
| CGCGCAACTTGGGTTCTAACCTGTTGCCT (site CGCGCAACTAG) | 0.0454 |
| TAGTACCCTTGGGTTCTAACCTGTTGCTG (site TAGTAACCTAA) | 0.434 |
| ACGCTAGCTTGGGTTCTAACCTGTTGCCT (site CCGCTAGCTAG) | 0.138 |
| AGGTTCCCTTGGGTTCTAACCTGTTGCTC (site AGGTTCCCTGA) | 1.45 |
| GTATACCCTTGGGTTCTAACCTGTTGCCA (site GTATACCCTAT) | 0.498 |
| TCAGGATCTTGGGTTCTAACCTGTTGCCT (site TCAGGATCTAG) | 0.679 |
| CCAAGTCCTTGGGTTCTAACCTGTTGCCA (site CCAAGTCCTTG) | 0.0554 |
| GGGGCGACTTGGGTTCTAACCTGTTGCCT (site GGGGCGACTAG) | 0.358 |
| GTGGTGGCTTGGGTTCTAACCTGTTGCCT (site GTGGTGGCTAG) | 0.764 |
| TCGAGTGCTTGGGTTCTAACCTGTTGCAG (site TCGAGTGCTCT) | 0.263 |
| AAGCACCCTTGGGTTCTAACCTGTTGCTG (site AAGCACCCTCA) | 2.02 |
| CTCATTCCTTGGGTTCTAACCTGTTGCGT (site CTCATTCCTAC) | 1.4 |
| CGCGTTCCTTGGGTTCTAACCTGTTGCCT (site CGCGTTCCTAG) | 0.197 |
| TAGAACTCTTGGGTTCTAACCTGTTGCCG (site TAGAACTCTCG) | 0.591 |
| AGTCTAGCTTGGGTTCTAACCTGTTGCTC (site AGTCTAGCTGA) | 0.336 |
| CTAAGTACTTGGGTTCTAACCTGTTGCAG (site CTAATTACTTT) | 0.56 |
| GAGTGGCCTTGGGTTCTAACCTGTTGCGA (site TCCGTATCTCT) | 0.0392 |
| CAACACTCTTGGGTTCTAACCTGTTGCCT (site CCACACTCTAG) | 0.452 |

| Sequence | recombinant barcode read abundance (log10) |
| --- | --- |
| GTCCGTCCTTGGGTTCTAACCTGTTGCGT (site GTCCGTCCTAA) | 0.139 |
| TAGCCCACTTGGGTTCTAACCTGTTGCGG (site TAGCCCACTCC) | 1.35 |
| ACTTTCCCTTGGGTTCTAACCTGTTGCCT (site GCTTTGCCTAG) | 0.0175 |
| AGCTCGTCTTGGGTTCTAACCTGTTGCGG (site AGTTCGTCTCG) | 0.191 |
| CAACGACCTTGGGTTCTAACCTGTTGCCT (site AAACGACCTAG) | 0.172 |
| TACTAAGCTTGGGTTCTAACCTGTTGCTT (site TACTAAGCTAG) | 0.0797 |
| ATAACAGCTTGGGTTCTAACCTGTTGCCT (site ATAAGAGCTAG) | 0.279 |
| CTCTTAACTTGGGTTCTAACCTGTTGCTA (site CTCTTAGCTTT) | 0.134 |
| CAACGAGCTTGGGTTCTAACCTGTTGCCG (site CAACGAGCTCG) | 0.506 |
| TGGCAGACTTGGGTTCTAACCTGTTGCCT (site TGGCAGTCTAG) | 0.232 |
| GTAAGCACTTGGGTTCTAACCTGTTGCTT (site GTAAGAACTAA) | 0.0561 |
| TAGCCTACTTGGGTTCTAACCTGTTGCGA (site TAGCCTACTCC) | 0.416 |
| GGGGTTCCTTGGGTTCTAACCTGTTGCTT (site GGGGTTCCTAA) | 1.52 |
| CTACATCCTTGGGTTCTAACCTGTTGCTT (site CTACAACCTAA) | 0.00817 |
| TAGTACCCTTGGGTTCTAACCTGTTGCAG (site TAGTACCCTAT) | 0.0395 |
| AGCACAACTTGGGTTCTAACCTGTTGCCT (site AGAACAACTAG) | 0.0799 |
| GTGAGCACTTGGGTTCTAACCTGTTGCTA (site GTGAGCACTTA) | 0.337 |
| TACCGTCCTTGGGTTCTAACCTGTTGCGG (site TACCGTCCTCC) | 1.8 |
| CGGACGGCTTGGGTTCTAACCTGTTGCCT (site CGGACGCCTAG) | 0.285 |
| TAGTCATCTTGGGTTCTAACCTGTTGCTC (site TAGTCATCTGA) | 1.41 |
| ACATAGTCTTGGGTTCTAACCTGTTGCCT (site ACATAGTCTAG) | 1.75 |
| CATTAGCCTTGGGTTCTAACCTGTTGCCT (site CATTAGCCTAG) | 0.583 |

| Sequence | recombinant barcode read abundance (log10) |
| --- | --- |
| TAGTTGTCTTGGGTTCTAACCTGTTGCTT (site CGACGCACTCC) | 0.301 |
| TCTGAAACTTGGGTTCTAACCTGTTGCCT (site TCTGAAACTAG) | 0.413 |
| CTATTCTCTTGGGTTCTAACCTGTTGCCT (site CTATTCTCTAG) | 2.03 |
| TACGCTCCTTGGGTTCTAACCTGTTGCCT (site TACGCTCCTAG) | 0.271 |
| GGGTCCACTTGGGTTCTAACCTGTTGCTT (site GGGTCCACTAG) | 1.11 |
| CTACAACCTTGGGTTCTAACCTGTTGCAG (site CTACAACCTCT) | 2.02 |
| CAGAGGCCTTGGGTTCTAACCTGTTGCCT (site CAGTGGCCTAG) | 0 |
| TGGTACCCTTGGGTTCTAACCTGTTGCTA (site GTTACTACTCG) | 0.0129 |
| ACACTAGCTTGGGTTCTAACCTGTTGCTG (site ACAGTAGCTCA) | 0.445 |
| CGGGTAACTTGGGTTCTAACCTGTTGCCT (site CGGGTAACTAG) | 0.0693 |
| ATCGGTCCTTGGGTTCTAACCTGTTGCCT (site ATAGGTCCTAG) | 0.476 |
| GCTTGGACTTGGGTTCTAACCTGTTGCAT (site GCTTGGACTAT) | 1.29 |
| GTATGATCTTGGGTTCTAACCTGTTGCAT (site GTATGTACTAT) | 0.106 |
| TATGACGCTTGGGTTCTAACCTGTTGCCT (site TAGGACGCTAG) | 0.00539 |
| TGTCGCTCTTGGGTTCTAACCTGTTGCCT (site TGTCGCTCTAG) | 1.1 |
| CTAGGAGCTTGGGTTCTAACCTGTTGCTG (site CTAGGAGCTAA) | 0.19 |
| AGATCCGCTTGGGTTCTAACCTGTTGCCT (site CGGTCCGCTAG) | 0.346 |
| GAAATGTCTTGGGTTCTAACCTGTTGCCT (site GAAATGTCTAG) | 1.75 |
| CAGTTCGCTTGGGTTCTAACCTGTTGCCT (site CAGTTGGCTAG) | 0.0461 |
| GCCAGACCTTGGGTTCTAACCTGTTGCCT (site GCCATACCTAG) | 0.112 |
| GGATAGCCTTGGGTTCTAACCTGTTGCTT (site GGATAGCCTAA) | 0.939 |
| ATAGAGTCTTGGGTTCTAACCTGTTGCCG (site ATAGAGTCTCG) | 1.95 |

| Sequence | recombinant barcode read abundance (log10) |
| --- | --- |
| CATGAGCCTTGGGTTCTAACCTGTTGCCT (site CATAAGCCTAG) | 0.694 |
| AGTTGTCCTTGGGTTCTAACCTGTTGCTT (site AGTTGTCCTAC) | 0.0653 |
| AGGAACCCTTGGGTTCTAACCTGTTGCTT (site AGGAACCCTAA) | 0.911 |
| CTCTATTCTTGGGTTCTAACCTGTTGCAT (site CTCTATTCTAT) | 0.242 |
| GACGTGCCTTGGGTTCTAACCTGTTGCCG (site GACGTGCCTCG) | 1.77 |
| GTAGTAACTTGGGTTCTAACCTGTTGCCT (site GTAGTAGCTAG) | 0.206 |
| CTTAGGACTTGGGTTCTAACCTGTTGCCG (site CTTAGGACTGG) | 0.155 |
| ACCAGGTCTTGGGTTCTAACCTGTTGCCT (site AGCAGGTCTAG) | 0.208 |
| CTCGGAGCTTGGGTTCTAACCTGTTGCCT (site CTCGGACCTAG) | 0.0847 |
| GTTAGAGCTTGGGTTCTAACCTGTTGCCT (site GTTCGAGCTAG) | 0.235 |
| GTCCCTCCTTGGGTTCTAACCTGTTGCCT (site GTCCCTCCTAT) | 0.586 |
| AAATGACCTTGGGTTCTAACCTGTTGCGT (site GTGCCCGCTCT) | 0.548 |
| TGAGTCCCTTGGGTTCTAACCTGTTGCTT (site TGAGTACCTAA) | 0.0411 |
| CACCTTCCTTGGGTTCTAACCTGTTGCAT (site CACCTTCCTAT) | 1.77 |
| TACTGAACTTGGGTTCTAACCTGTTGCCT (site TACTTAACTAG) | 0.305 |
| GAGAAGTCTTGGGTTCTAACCTGTTGCCT (site GAGCAGTCTAG) | 0.133 |
| ATCGGAGCTTGGGTTCTAACCTGTTGCAG (site ATCGGAGCTCC) | 0.166 |
| CTTAGTACTTGGGTTCTAACCTGTTGCAT (site CTTAGTACTAT) | 0.246 |
| ATTACTTCTTGGGTTCTAACCTGTTGCTT (site GAGTTCCCTGG) | 0.406 |
| TAGTCGTCTTGGGTTCTAACCTGTTGCCT (site TAGTCGTCTAA) | 0.238 |
